The numbers were not newly measured in patent US20240173272A1 (LUPIN ATLANTIS HOLDINGS SA, priority 2021, published 2024), which cites them from elsewhere.

For series [1] the following is noted: weak base.
For series [2] the following is noted: oral administration.

Take `Cc1cccc(C)c1OCC(C)N` (centres unmarked) [Mexiletine]: the pKa entry in series [1] is listed as “about 9.1”. Moreover, in series [2], the bioavailability result is given as “about 90%”.
